US7776847B2, “Benzisothiazoles useful for treating or preventing HCV infection” (priority 2005, dated 2010)

Each molecule was assayed on HCV replicon (assay: HCV replicon luciferase reporter assay). Conditions: Hepatitis C virus, Table 5; read-out: IC50.
Format: cell-based
Method in brief: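 Replicon-bearing dividing cells seeded at 5,000–7,500 cells/well, grown 24 h at 37° C/5% CO2, then exposed to test compound at various concentrations for a further 24–48 h. Replication/translation read by luciferase reporter; IC50 taken as compound amount giving 50% reduction in luciferase activity.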

CCCCCOc1ccc(C(=O)NCCNc2nsc3ccc(Cl)cc23)cc1 [Compound 423, N-(2-(5-chlorobenzo[d]isothiazol-3-ylamino)ethyl)-4-(pentyloxy)benzamide] and COc1ccc2[nH]c(C(=O)NCCNc3nsc4ccc(Cl)cc34)cc2c1 [Compound 432, N-(2-(5-chlorobenzo[d]isothiazol-3-ylamino)ethyl)-5-methoxy-1H-indole-2-carboxamide] cannot be ordered by IC50: less than 5 µM for the first, less than 5 µM for the second.

CC(C)(C)OC(=O)N1CCCC(C(=O)NCCNc2nsc3ccc(Cl)cc23)C1 (centres unmarked) [Compound 424, tert-butyl 3-(2-(5-chlorobenzo[d]isothiazol-3-ylamino)ethylcarbamoyl)piperidine-1-carboxylate] and CC(C)(C)OC(=O)N[C@H](C(=O)NCCNc1nsc2ccc(Cl)cc12)c1ccccc1 [Compound 425, (S)-tert-butyl 2-(2-(5-chlorobenzo[d]isothiazol-3-ylamino)ethylamino)-2-oxo-1-phenylethylcarbamate] cannot be ordered by IC50: less than 5 µM for the first, less than 5 µM for the second.

CC(C)NC(=O)c1ccc(C(=O)NCCNc2nsc3ccccc23)cc1 [Compound 426, N^1-(2-(benzo[d]isothiazol-3-ylamino)ethyl)-N^4-isopropylterephthalamide] and CC(C)NC(=O)c1cccc(C(=O)NCCNc2nsc3ccccc23)c1 [Compound 430, N^1-(2-(benzo[d]isothiazol-3-ylamino)ethyl)-N^3-isopropylisophthalamide] cannot be ordered by IC50: less than 5 µM for the first, less than 5 µM for the second.

O=C(NCCNc1nsc2ccccc12)c1ccc(C(=O)NC2CC2)cc1 [Compound 427, N^1-(2-(benzo[d]isothiazol-3-ylamino)ethyl)-N^4-cyclopropylterephthalamide] and O=C(NCCNc1nsc2ccccc12)c1cccc(C(=O)NC2CC2)c1 [Compound 431, N^1-(2-(benzo[d]isothiazol-3-ylamino)ethyl)-N^3-cyclopropylisophthalamide] cannot be ordered by IC50: less than 5 µM for the first, less than 5 µM for the second.

CCCNC(=O)c1cccc(C(=O)NCCNc2nsc3ccccc23)c1 [Compound 428, N^1-(2-(benzo[d]isothiazol-3-ylamino)ethyl)-N^3-propylisophthalamide] and CCCCNC(=O)c1cccc(C(=O)NCCNc2nsc3ccccc23)c1 [Compound 429, N^1-(2-(benzo[d]isothiazol-3-ylamino)ethyl)-N^3-butylisophthalamide] cannot be ordered by IC50: less than 5 µM for the first, less than 5 µM for the second.

O=C(NCCCNc1nsc2ccccc12)c1cc2ccc([N+](=O)[O-])cc2s1 [Compound 433, N-(3-(benzo[d]isothiazol-3-ylamino)propyl)-6-nitrobenzo[b]thiophene-2-carboxamide] and O=C(NCCCNc1nsc2ccccc12)c1cc2ccc([N+](=O)[O-])cc2o1 [Compound 439, N-(3-(benzo[d]isothiazol-3-ylamino)propyl)-6-nitrobenzofuran-2-carboxamide] cannot be ordered by IC50: less than 5 µM for the first, less than 5 µM for the second.

First: c1ccc2c(NCCCNc3nsc4ccccc34)nsc2c1 [Compound 434, N^1,N^3-di(benzo[d]isothiazol-3-yl)propane-1,3-diamine]
Second: O=C(NCCCNc1nsc2ccccc12)c1ccc2[nH]cnc2c1 [Compound 449, N-(3-(benzo[d]isothiazol-3-ylamino)propyl)-1H-benzo[d]imidazole-5-carboxamide]
The IC50 of the first is lower: less than 5 µM for the first, greater than 5 µM for the second. The first is the more potent here.

COc1cccc2cc(C(=O)NCCCNc3nsc4ccccc34)oc12 [Compound 435, N-(3-(benzo[d]isothiazol-3-ylamino)propyl)-7-methoxybenzofuran-2-carboxamide] and COc1ccc2oc(C(=O)NCCCNc3nsc4ccccc34)cc2c1 [Compound 437, N-(3-(benzo[d]isothiazol-3-ylamino)propyl)-5-methoxybenzofuran-2-carboxamide] cannot be ordered by IC50: less than 5 µM for the first, less than 5 µM for the second.

O=C(NCCCNc1nsc2ccccc12)c1cc2cc(Cl)ccc2o1 [Compound 436, N-(3-(benzo[d]isothiazol-3-ylamino)propyl)-5-chlorobenzofuran-2-carboxamide] and CCCC(=O)Nc1ccc2oc(C(=O)NCCCNc3nsc4ccccc34)cc2c1 [Compound 454, N-(3-(benzo[d]isothiazol-3-ylamino)propyl)-5-butyramidobenzofuran-2-carboxamide] cannot be ordered by IC50: less than 5 µM for the first, less than 5 µM for the second.

COc1ccc(-c2cccc(C(=O)NCCCNc3nsc4ccccc34)n2)c(OC)c1 [Compound 438, N-(3-(benzo[d]isothiazol-3-ylamino)propyl)-6-(2,4-dimethoxyphenyl)picolinamide] and CS(=O)(=O)c1ccc(-c2cccc(C(=O)NCCCNc3nsc4ccccc34)n2)cc1 [Compound 440, N-(3-(benzo[d]isothiazol-3-ylamino)propyl)-6-(4-(methylsulfonyl)phenyl)picolinamide] cannot be ordered by IC50: less than 5 µM for the first, less than 5 µM for the second.

CC1=NN(c2ccc(C(=O)NCCNc3nsc4ccccc34)cc2)C(=O)C1 [Compound 441, N-(2-(benzo[d]isothiazol-3-ylamino)ethyl)-4-(3-methyl-5-oxo-4,5-dihydropyrazol-1-yl)benzamide] and O=C(NCCCNc1nsc2ccccc12)c1ccc(O)nc1 [Compound 451, N-(3-(benzo[d]isothiazol-3-ylamino)propyl)-6-hydroxynicotinamide] cannot be ordered by IC50: greater than 5 µM for the first, greater than 5 µM for the second.

First: O=C(NCCCNc1nsc2ccccc12)c1ccc(Br)nc1 [Compound 443, N-(3-(benzo[d]isothiazol-3-ylamino)propyl)-6-bromonicotinamide]
Second: O=C(NCCCNc1nsc2ccccc12)c1cnc(O)c(Cl)c1 [Compound 452, N-(3-(benzo[d]isothiazol-3-ylamino)propyl)-5-chloro-6-hydroxynicotinamide]
The IC50 of the first is lower: less than 5 µM for the first, greater than 5 µM for the second.

Compared with CN(C)CCCNc1cccc(C(=O)NCCCNc2nsc3ccccc23)n1 [Compound 447, N-(3-(benzo[d]isothiazol-3-ylamino)propyl)-6-(3-(dimethylamino)propylamino)picolinamide], CCCCNc1cccc(C(=O)NCCCNc2nsc3ccccc23)n1 [Compound 448, N-(3-(benzo[d]isothiazol-3-ylamino)propyl)-6-(butylamino)picolinamide] is higher in IC50: less than 5 µM for the first, greater than 5 µM for the second.

O=C(NCCCNc1nsc2ccccc12)c1ccc2[nH]ccc2c1 [Compound 450, N-(3-(benzo[d]isothiazol-3-ylamino)propyl)-1H-indole-5-carboxamide] and CCCC(=O)Nc1ccc2sc(C(=O)NCCCNc3nsc4ccccc34)cc2c1 [Compound 457, N-(3-(benzo[d]isothiazol-3-ylamino)propyl)-5-butyramidobenzo[b]thiophene-2-carboxamide] cannot be ordered by IC50: less than 5 µM for the first, less than 5 µM for the second.

CCCCC(=O)Nc1ccc2oc(C(=O)NCCCNc3nsc4ccccc34)cc2c1 [Compound 453, N-(3-(benzo[d]isothiazol-3-ylamino)propyl)-5-pentanamidobenzofuran-2-carboxamide] and CCCNC(=O)Nc1ccc2oc(C(=O)NCCCNc3nsc4ccccc34)cc2c1 [Compound 455, N-(3-(benzo[d]isothiazol-3-ylamino)propyl)-5-(3-propylureido)benzofuran-2-carboxamide] cannot be ordered by IC50: less than 5 µM for the first, less than 5 µM for the second.

Compared with CCCCC(=O)Nc1ccc2sc(C(=O)NCCCNc3nsc4ccccc34)cc2c1 [Compound 456, N-(3-(benzo[d]isothiazol-3-ylamino)propyl)-5-pentanamidobenzo[b]thiophene-2-carboxamide], CCCNC(=O)Nc1ccc2sc(C(=O)NCCCNc3nsc4ccccc34)cc2c1 [Compound 458, N-(3-(benzo[d]isothiazol-3-ylamino)propyl)-5-(3-propylureido)benzo[b]thiophene-2-carboxamide] is higher in IC50: less than 5 µM for the first, greater than 5 µM for the second. The first is the more potent here.
